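How tested: cells in 96-well plates exposed to compound for 48 hours at five concentrations. Abbreviation: GI50, concentration required for 50% inhibition of growth.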 Activity calls are given as the source filed them. Cut-off read from the data, not from the text of the source: active = GI50 up to about 1.1 µM and inactive = higher.
Legend:
Test in all cases: NCI tumour cell line growth inhibition, 48 h
SN12C = test system: SN12C
PC-3 = test system: PC-3
DU-145 = test system: DU-145
HOP-92 = test system: HOP-92
SF-268 = test system: SF-268
SR = test system: SR
TK-10 = test system: TK-10
UACC-62 = test system: UACC-62
NCI-H23 = test system: NCI-H23
COLO 205 = test system: COLO 205
LOX IMVI = test system: LOX IMVI
SF-539 = test system: SF-539
NCI-H460 = test system: NCI-H460
OVCAR-3 = test system: OVCAR-3
UACC-257 = test system: UACC-257
MDA-MB-231 = test system: MDA-MB-231
SK-OV-3 = test system: SK-OV-3
SK-MEL-2 = test system: SK-MEL-2
MDA-N = test system: MDA-N
RPMI-8226 = test system: RPMI-8226

Row | Structure (SMILES) | GI50 (SN12C) | GI50 (PC-3) | GI50 (DU-145) | GI50 (HOP-92) | GI50 (SF-268) | GI50 (SR) | GI50 (TK-10) | GI50 (UACC-62) | GI50 (NCI-H23) | GI50 (COLO 205) | GI50 (LOX IMVI) | GI50 (SF-539) | GI50 (NCI-H460) | GI50 (OVCAR-3) | GI50 (UACC-257) | GI50 (MDA-MB-231) | GI50 (SK-OV-3) | GI50 (SK-MEL-2) | GI50 (MDA-N) | GI50 (RPMI-8226)
1 | O=C1c2ccccc2OCC12OC21C=CC(Cl)=CC1 (stereo not given) | 15.7 µM (inactive) | 26.5 µM (inactive) | 14.4 µM (inactive) | 36.1 µM (inactive) | 35.5 µM (inactive) | 2.07 µM (inactive) | 33.2 µM (inactive) | 27.3 µM (inactive) | 16 µM (inactive) | 18 µM (inactive) | 13.5 µM (inactive) | 52.4 µM (inactive) | 20.3 µM (inactive) | 20.5 µM (inactive) | 32.2 µM (inactive) | 22 µM (inactive) | 51.8 µM (inactive) | 21.7 µM (inactive) | 17 µM (inactive) | 14.8 µM (inactive)
2 | C=C1C(=O)OC2CC(C)C(/C=C/C(C)=O)=CCC12 (stereo not given) | > 100 µM (inactive) | > 100 µM (inactive) | > 100 µM (inactive) | > 100 µM (inactive) | > 100 µM (inactive) | 57.9 µM (inactive) | > 100 µM (inactive) | > 100 µM (inactive) | > 100 µM (inactive) | 90.6 µM (inactive) | > 100 µM (inactive) | > 100 µM (inactive) | > 100 µM (inactive) | > 100 µM (inactive) | > 100 µM (inactive) | > 100 µM (inactive) | > 100 µM (inactive) | > 100 µM (inactive) | > 100 µM (inactive) | 86.1 µM (inactive)
3 | COc1ccc2[nH]c(Cl)c(/C=C3/C(=O)N(c4ccccc4)c4ccccc43)c2c1 | 4.78 µM (inactive) | 3.7 µM (inactive) | 18.3 µM (inactive) | 13.7 µM (inactive) | 5.08 µM (inactive) | 2.65 µM (inactive) | 10.8 µM (inactive) | 5.21 µM (inactive) | 4.06 µM (inactive) | 2.18 µM (inactive) | 3.29 µM (inactive) | 3.03 µM (inactive) | 3.55 µM (inactive) | 3.37 µM (inactive) | 7.13 µM (inactive) | 6.35 µM (inactive) | 3.5 µM (inactive) | 2.92 µM (inactive) | 1.6 µM (inactive) | 2.82 µM (inactive)
4 | Cc1ccc2nc(/C=N/c3ccc(Cl)cc3)cc(C)c2c1 | 5.21 µM (inactive) | 1.9 µM (inactive) | 0.659 µM (active) | 18.6 µM (inactive) | 14.7 µM (inactive) | 1.88 µM (inactive) | 2.9 µM (inactive) | 0.133 µM (active) | 9.91 µM (inactive) | 1.16 µM (inactive) | 0.329 µM (active) | 2.12 µM (inactive) | 0.729 µM (active) | 9.84 µM (inactive) | 4.38 µM (inactive) | 4.94 µM (inactive) | 16.8 µM (inactive) | 25.8 µM (inactive) | 1.3 µM (inactive) | 1.24 µM (inactive)
5 | CS(=O)(=O)C(C#N)c1nc2ccccc2nc1Cl (stereo not given) | > 100 µM (inactive) | > 100 µM (inactive) | > 100 µM (inactive) | > 100 µM (inactive) | > 74 µM (inactive) | > 100 µM (inactive) | > 32.6 µM (inactive) | > 100 µM (inactive) | > 100 µM (inactive) | > 100 µM (inactive) | > 100 µM (inactive) | > 28.5 µM (inactive) | > 30.5 µM (inactive) | > 72.1 µM (inactive) | > 73.3 µM (inactive) | > 100 µM (inactive) | > 100 µM (inactive) | > 22.4 µM (inactive) | > 100 µM (inactive) | > 100 µM (inactive)
6 | CC(C)(/N=N/C(C)(C)C(=N)N)C(=N)N | > 100 µM (inactive) | > 100 µM (inactive) | > 100 µM (inactive) | > 100 µM (inactive) | > 100 µM (inactive) | > 100 µM (inactive) | > 100 µM (inactive) | > 100 µM (inactive) | > 100 µM (inactive) | > 100 µM (inactive) | > 100 µM (inactive) | > 100 µM (inactive) | > 100 µM (inactive) | > 100 µM (inactive) | > 100 µM (inactive) | > 100 µM (inactive) | > 100 µM (inactive) | > 100 µM (inactive) | > 100 µM (inactive) | > 100 µM (inactive)

Source: ChEMBL document CHEMBL1201862, “PubChem BioAssay data set” (2004)
